The text below walks through data of patent US6288091A, “Antiherpes virus compounds and methods for their preparation and use” (Boehringer Ingelheim Ltd., priority 1999, dated 2001).

Where two headings read alike, the source gives them in different places. Bounds are passed on as bounds.

The target of assay [1] is T1, HSV-1 helicase-primase (Human herpesvirus 1, UniProt P10189+P10236).
T1 construct: made in house; host or cells: Sf21 insect cells triply infected with recombinant baculoviruses (UL5, UL8, UL52)
Briefly: HSV-1 DNA-dependent ATPase assay (inhibition of HSV-1 helicase-primase). The class given is biochemical. Summed up: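 ATP hydrolysis was measured as inorganic phosphate (malachite green/molybdate, 650 nm) after 20 min at 34°. Reaction: 3 μg/mL purified Sf21-expressed UL5/UL8/UL52 helicase-primase, 25 μM single-stranded M13 DNA hybridized to 68-mer, 4 mM ATP, pH 7.5 HEPES buffer, 3.3% DMSO. Net absorbance change with and without inhibitor gave DNA-dependent ATPase activity.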

For assay [2], the system named is HCMV (strain AD169). Briefly: Inhibition of HCMV replication, plaque reduction assay (PRA, Hs-68 cells). The class given is cell-based, Human Cytomegalovirus (HCMV). Particulars: read-out: PRA CMV EC50. In a few lines:
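Hs-68 monolayers (80–90% confluent) were infected with ~50 PFU HCMV AD169 for 2 h at 37°, then given compound in DMEM/5% inactivated FBS, refreshed after 4 days and kept 4 more days. Plaques were counted after formaldehyde fixation and crystal violet staining. EC50 derives from percent plaque reduction versus untreated wells.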
A general note: In a plaque reduction assay, fewer plaques than in the control indicate reduced infectivity or spread.

In assay [3] the test system is HSV-1 strain F or KOS. Briefly: Inhibition of herpes simplex virus (HSV-1) replication in cell culture (BHK-21 cells, glycoprotein C ELISA). Format: cell-based. In a few lines: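 Replication readout: ELISA for HSV-1 late glycoprotein C (mAb C11, peroxidase-OPD, 450 nm) on glutaraldehyde-fixed cells. Monolayers (~50,000 cells/well) were infected with strain F or KOS (MOI 0.05 PFU/cell), then incubated 24 h at 37° with compound in 2% FBS α-MEM. EC50 derived from % inhibition.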
(In general: An ELISA detects its analyte on a solid surface through an enzyme-linked reagent.)

[4] abbreviates: Human betaherpesvirus 5, AD169, Hs68, Group 1 Table 3 entries.
Setting [5] is: Human alphaherpesvirus 1, BHK-21, Group 1 Table 3 entries.
Where [6] appears, read: Group 1 Table 2 entries (Q = CH2).
[7] abbreviates: Human betaherpesvirus 5, AD169, Hs68, Group 1 Table 2 entries.
[8] abbreviates: Human alphaherpesvirus 1, BHK-21, Group 1 Table 2 entries.
[9] abbreviates: Human betaherpesvirus 5, AD169, Hs68, Group 1 Table 1 entries.
[10] abbreviates: Human alphaherpesvirus 1, BHK-21, Group 1 Table 1 entries.
Setting [11] is: Human betaherpesvirus 5, AD169, Hs68, Group 1 Table 5 entries.
The mark [12] stands for this setting: Human alphaherpesvirus 1, BHK-21, Group 1 Table 5 entries.

T1 sequence (P10192 whole entry): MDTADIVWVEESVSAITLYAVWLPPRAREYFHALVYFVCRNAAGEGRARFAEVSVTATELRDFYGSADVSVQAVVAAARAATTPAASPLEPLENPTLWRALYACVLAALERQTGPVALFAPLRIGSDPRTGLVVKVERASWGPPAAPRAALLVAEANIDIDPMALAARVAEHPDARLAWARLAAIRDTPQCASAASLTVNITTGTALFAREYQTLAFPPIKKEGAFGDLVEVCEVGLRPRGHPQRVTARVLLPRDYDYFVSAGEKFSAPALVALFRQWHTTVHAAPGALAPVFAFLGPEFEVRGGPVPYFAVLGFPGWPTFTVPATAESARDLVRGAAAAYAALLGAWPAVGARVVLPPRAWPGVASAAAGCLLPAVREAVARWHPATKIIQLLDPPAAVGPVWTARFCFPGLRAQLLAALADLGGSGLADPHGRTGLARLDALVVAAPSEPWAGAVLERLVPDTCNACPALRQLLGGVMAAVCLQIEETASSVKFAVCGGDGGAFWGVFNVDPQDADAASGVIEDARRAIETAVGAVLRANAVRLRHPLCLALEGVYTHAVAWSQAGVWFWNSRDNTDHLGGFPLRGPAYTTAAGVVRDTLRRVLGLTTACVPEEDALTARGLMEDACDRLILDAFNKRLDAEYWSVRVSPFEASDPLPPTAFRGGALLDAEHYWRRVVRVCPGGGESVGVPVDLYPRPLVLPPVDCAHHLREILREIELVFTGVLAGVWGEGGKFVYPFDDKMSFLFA
T1 sequence (P10236 whole entry): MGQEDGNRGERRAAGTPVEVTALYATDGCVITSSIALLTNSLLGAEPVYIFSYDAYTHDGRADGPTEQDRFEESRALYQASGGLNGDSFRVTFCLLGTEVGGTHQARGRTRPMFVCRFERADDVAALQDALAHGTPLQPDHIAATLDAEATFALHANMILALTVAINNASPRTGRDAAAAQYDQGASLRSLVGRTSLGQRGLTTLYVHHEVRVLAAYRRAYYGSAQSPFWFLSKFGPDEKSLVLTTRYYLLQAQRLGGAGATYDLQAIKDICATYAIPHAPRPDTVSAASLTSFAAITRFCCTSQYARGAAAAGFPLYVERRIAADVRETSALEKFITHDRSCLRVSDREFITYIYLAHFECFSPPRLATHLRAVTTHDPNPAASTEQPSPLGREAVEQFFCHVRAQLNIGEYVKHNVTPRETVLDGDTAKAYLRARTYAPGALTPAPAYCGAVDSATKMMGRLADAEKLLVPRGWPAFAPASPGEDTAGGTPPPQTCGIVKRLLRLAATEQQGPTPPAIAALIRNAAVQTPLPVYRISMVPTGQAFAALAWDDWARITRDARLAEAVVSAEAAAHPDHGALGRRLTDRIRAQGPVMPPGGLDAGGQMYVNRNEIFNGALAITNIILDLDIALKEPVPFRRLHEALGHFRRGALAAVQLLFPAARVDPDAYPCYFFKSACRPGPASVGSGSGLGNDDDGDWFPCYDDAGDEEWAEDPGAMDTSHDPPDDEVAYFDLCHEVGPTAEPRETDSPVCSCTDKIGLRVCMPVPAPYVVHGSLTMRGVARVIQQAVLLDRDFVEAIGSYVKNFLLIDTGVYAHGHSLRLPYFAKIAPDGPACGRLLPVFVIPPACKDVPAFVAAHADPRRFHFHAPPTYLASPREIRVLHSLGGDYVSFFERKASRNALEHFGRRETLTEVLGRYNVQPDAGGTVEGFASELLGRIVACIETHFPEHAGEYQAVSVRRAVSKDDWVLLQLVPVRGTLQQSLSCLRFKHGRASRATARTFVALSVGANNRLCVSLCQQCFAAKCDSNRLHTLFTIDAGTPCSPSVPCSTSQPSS
T1 sequence (P10189 whole entry): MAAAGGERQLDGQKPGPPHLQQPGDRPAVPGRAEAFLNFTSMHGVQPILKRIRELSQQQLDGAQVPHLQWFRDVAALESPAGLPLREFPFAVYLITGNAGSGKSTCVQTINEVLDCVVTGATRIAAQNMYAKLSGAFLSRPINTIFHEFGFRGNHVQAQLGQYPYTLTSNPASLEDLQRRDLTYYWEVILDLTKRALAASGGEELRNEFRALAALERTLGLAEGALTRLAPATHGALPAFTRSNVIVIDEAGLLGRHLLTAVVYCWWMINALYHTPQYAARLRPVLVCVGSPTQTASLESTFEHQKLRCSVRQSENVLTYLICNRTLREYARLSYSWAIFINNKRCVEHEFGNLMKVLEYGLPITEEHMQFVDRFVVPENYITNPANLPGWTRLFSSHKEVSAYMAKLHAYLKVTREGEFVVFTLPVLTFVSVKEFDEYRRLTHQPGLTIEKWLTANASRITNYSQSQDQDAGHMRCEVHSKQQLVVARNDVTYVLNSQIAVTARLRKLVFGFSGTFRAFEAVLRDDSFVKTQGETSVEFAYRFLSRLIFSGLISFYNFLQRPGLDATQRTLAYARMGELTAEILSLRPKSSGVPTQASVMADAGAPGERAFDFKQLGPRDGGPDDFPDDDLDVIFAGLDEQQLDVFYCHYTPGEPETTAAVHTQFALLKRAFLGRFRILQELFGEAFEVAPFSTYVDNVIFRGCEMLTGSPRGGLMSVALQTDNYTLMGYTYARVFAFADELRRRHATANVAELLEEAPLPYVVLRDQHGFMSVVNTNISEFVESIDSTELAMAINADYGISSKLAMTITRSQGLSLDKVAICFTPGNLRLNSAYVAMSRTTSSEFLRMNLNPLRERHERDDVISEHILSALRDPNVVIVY

In the case of `CN(C(=O)CN(Cc1ccccc1)C(=O)C1CCCCC1)c1ccc(-c2csc(N)n2)cc1` [Example 1], in assay [1] (Group 1 Table 3 entries), the IC50 was found to be 0.053 µM. Besides, the EC50 in assay [2] (setting [4]) was 24 µM; in assay [3] (setting [5]) it was 0.016 µM.
In turn, `Nc1nc(-c2ccc(NC(=O)CCNCc3ccccc3)cc2)cs1` [Example 1] showed an IC50 in assay [1] (setting [6]) of 21 µM. In addition, the EC50 in assay [2] (setting [7]) came out at 30 µM; in assay [3] (setting [8]), 6 µM.
For `Nc1nc(-c2ccc(NC(=O)CNCc3ccccc3)cc2)cs1` [Example 1], it took 6.4 µM to reach half-maximal inhibition in assay [1] (Group 1 Table 1 entries) (IC50). Further, the EC50 in assay [2] (setting [9]) is above 60 µM; in assay [3] (setting [10]) it was 2.7 µM.
Consider `Nc1nc(-c2ccc(NC(=O)CCN(Cc3ccccc3)Cc3ccccc3)cc2)cs1` [Example 2], for which half-maximal inhibition in assay [1] (setting [6]) (IC50) was put at 1.2 µM. Besides, the EC50 was 4.7 µM in assay [2] (setting [7]) and 2.2 µM in assay [3] (setting [8]).
`CC(C)(C)OC(=O)N[C@@H](Cc1ccccc1)C(=O)Nc1ccc(-c2csc(N)n2)cc1` [Example 3]: the IC50 in assay [1] (Group 1 Table 5 entries) was found to be 0.046 µM. The EC50 turned out to be 24 µM in assay [2] (setting [11]) and 0.016 µM in assay [3] (setting [12]).
The molecule `Nc1nc(-c2ccc(NC(=O)CCN(Cc3ccccc3)C(=O)c3ccccc3)cc2)cs1` [Example 3] yielded an IC50 in assay [1] (setting [6]) of 2.1 µM. Besides, the EC50 was found to be 9.2 µM in assay [2] (setting [7]) and 2.2 µM in assay [3] (setting [8]).
For the molecule `Nc1nc(-c2ccc(NC(=O)CNCCCc3ccccc3)cc2)cs1` [Example 3], the IC50 in assay [1] (Group 1 Table 1 entries) was 7.6 µM. Moreover, the concentration for a half-maximal effect (EC50) in assay [2] (setting [9]) was above 14 µM; in assay [3] (setting [10]), 18 µM.
Molecule `CC(C)(C)OC(=O)N[C@H](Cc1ccccc1)C(=O)Nc1ccc(-c2csc(N)n2)cc1` [Example 4] registered an IC50 in assay [1] (Group 1 Table 5 entries) of 1.5 µM. Besides, the 50% effective concentration (EC50) amounted to 22 µM in assay [2] (setting [11]) and 0.57 µM in assay [3] (setting [12]).
`Nc1nc(-c2ccc(NC(=O)CCNCc3cccc(F)c3)cc2)cs1` [Example 4] showed an IC50 in assay [1] (setting [6]) of 5.2 µM. For the same molecule, the EC50 was above 3.7 µM in assay [2] (setting [7]) and 2.2 µM in assay [3] (setting [8]).
Regarding `O=C(CN(Cc1ccccc1)C(=O)C1CCCCC1)Nc1ccc(-c2cscn2)cc1` [Example 5], the IC50 in assay [1] (Group 1 Table 3 entries) came out at 0.1 µM. For the same molecule, the EC50 in assay [2] (setting [4]) was 16 µM; in assay [3] (setting [5]), 0.012 µM.
`CNc1nc(-c2ccc(NC(=O)CN(Cc3ccccc3)C(=O)c3ccccc3)cc2)cs1` [Example 6] came in with an IC50 in assay [1] (Group 1 Table 3 entries) of 0.33 µM. Also, the results for the EC50 in assay [2] (setting [4]) and in assay [3] (setting [5]) were 16 µM and 0.012 µM, respectively.
Molecule `Nc1nc(-c2ccc(NC(=O)[C@H](Cc3ccccc3)NCc3ccccc3)cc2)cs1` [Example 6] registered an IC50 in assay [1] (Group 1 Table 5 entries) of 1.06 µM. Further, the concentration for a half-maximal effect (EC50) stood at 7 µM in assay [2] (setting [11]) and 0.83 µM in assay [3] (setting [12]).
The matching figures for `CN[C@@H](Cc1ccccc1)C(=O)Nc1ccc(-c2csc(N)n2)cc1` [Example 8]: 45 µM, 33 µM and 14 µM.
Consider `Nc1nc(-c2ccc(NC(=O)CCN(Cc3ccccc3)C(=O)C3CCCCC3)cc2)cs1` [Example 8], for which the IC50 in assay [1] (setting [6]) is 1.7 µM. Besides, the EC50 came out at 13 µM in assay [2] (setting [7]) and 1.1 µM in assay [3] (setting [8]).
For `Nc1nc(-c2ccc(NC(=O)[C@@H](Cc3ccccc3)N(Cc3ccccc3)C(=O)C3CCCCC3)cc2)cs1` [Example 9], it took 0.052 µM to reach half-maximal inhibition in assay [1] (Group 1 Table 5 entries) (IC50). Besides, the concentration for a half-maximal effect (EC50) in assay [2] (setting [11]) amounted to 8.7 µM; in assay [3] (setting [12]), 0.29 µM.
On to `C[C@H](NCC(=O)Nc1ccc(-c2csc(N)n2)cc1)c1ccccc1` [Example 10], for which, in assay [1] (Group 1 Table 1 entries), the IC50 was 6.9 µM. The EC50 was above 30 µM in assay [2] (setting [9]) and 2.2 µM in assay [3] (setting [10]).
With `Nc1nc(-c2ccc(NC(=O)CCNC3Cc4ccccc4C3)cc2)cs1` [Example 10], the IC50 in assay [1] (setting [6]) was 21 µM. The half-maximal effective concentration (EC50) is 14 µM in assay [2] (setting [7]) and 3.9 µM in assay [3] (setting [8]).
Take `CN(C)c1nc(-c2ccc(NC(=O)CN(Cc3ccccc3)C(=O)c3ccccc3)cc2)cs1` [Example 11]: the IC50 in assay [1] (Group 1 Table 3 entries) is above 50 µM. Moreover, the figures for the 50% effective concentration (EC50) in assay [2] (setting [4]) and in assay [3] (setting [5]) were 18 µM and 0.024 µM, respectively.
In assay [1] (Group 1 Table 1 entries), `C[C@@H](NCC(=O)Nc1ccc(-c2csc(N)n2)cc1)c1ccccc1` [Example 11] had an IC50 of 3.7 µM. The values for the EC50 in assay [2] (setting [9]) and in assay [3] (setting [10]) were 19 µM and 1.3 µM, respectively.
For `Nc1nc(-c2ccc(NC(=O)CCN(C(=O)c3cccnc3)C3Cc4ccccc4C3)cc2)cs1` [Example 12], the IC50 in assay [1] (setting [6]) was 10 µM. Further, the EC50 was 8 µM in assay [2] (setting [7]) and 7.6 µM in assay [3] (setting [8]).
The molecule `CC(C)(C)OC(=O)N(CCC(=O)Nc1ccc(-c2csc(N)n2)cc1)C1Cc2ccccc2C1` [Example 14] gave an IC50 in assay [1] (setting [6]) of 1.7 µM. For the same molecule, the EC50 in assay [2] (setting [7]) is above 28 µM; in assay [3] (setting [8]), 1.8 µM.

What is called IC50 is the concentration needed to halve the response being measured. Low readings indicate inhibition by little substance, high ones a need for much substance. In general, EC50 refers to the concentration at which the effect is half-maximal.
